# Source: US8173600B2, “Caspase-2 inhibitors and their biological applications” (Chiesi Farmaceutici S.p.A., priority 2004, dated 2012)
# Like-named read-outs stand apart in the source and are kept apart here. Peptide text beside a SMILES is read from it. * marks the point of attachment. X1 = COC(=O)C[C@H](N*)C(=O)COc1c(F)cccc1F; Quinaldoyl = O=C(c1ccc2ccccc2n1)*
# What was measured:
# [1] = test system: primary cortical neurons
# Description: Primary cortical neurons were cultured from E14 SWISS mice embryos (Janvier). Mice were sacrificed by cervical dislocation and embryos were removed by caesarean. Cerebral cortices were extracted and tissues mechanically triturated 15 times in L15 medium (Gibco BRL) by using 1000 μl tips (Eppendorf), then debris were removed, and the cell suspension was centrifuged at 850 rpm for 10 min. […]
# 5.1.3 Apoptosis assays. Analysis was performed on previously stained adherent neurons by fluorescence microscopy (FM) (DM IRB inverted fluorescence microscope, Leica, Rueil-malmaison, France) equipped with a 100 W mercury short arc lamp and a X 40 N PLAN L objective or a water immersion X 100 N PLAN objective. Usually, quantitative studies were performed by both FM on approximately 200-600 cells/field by scoring 5-10 random-selected fields per experiment and flow cytometry (FC) for higher sample throughput. […] Activated caspase-2 was detected using specific FAM-conjugated peptides (called FLICA: CaspaTag™ fluorescein Caspase Activity Kits, Q-Biogen, Illkirch, France; ApoFluor™ Caspase Detection Kits, MP BioMedicals): FAM-VDVAD (SEQ ID NO:9)-fmk. Viability loss was assessed by 7-AAD (Sigma) incorporation.
# [2] = test system: 32 others related-proteases or enzymes involved in signal transduction and neuronal metabolism, nitric oxide pathway or prostanglandin metabolism; conditions: 1 μM, n=2
# [3] = after freeze/thawing of aqueous solution
# Description: Stability was followed throughout 7 days at RT or after freeze/thawing of aqueous solution comprising various 10-100% of excipients by using HPLC (Varian ProStar 410 equipped of Nucleosile C18 (8 μm, 3.9×150 mm) with detection at 214 nm).
# [4] = test system: neonatal ischemic brain injury
# [5] = biological target: caspase-2 (Rattus norvegicus, UniProt P55215); conditions: 5 mg/kg i.p., sacrificed at 24 hrs, brain homogenates
# Description: Brain hemispheres were lysed in 10 mM Hepes, 5 mM MgCl2, 42 mM KCl, 1 mM DTT, 0.5% CHAPS supplemented by complete protease inhibitors cocktail (Roche, Meylan, France) by using a manual potter on ice. Homogenates were centrifuged at 10000 g/4° C. for 10 min before keeping surnageant. Protein concentration was determined using BCA test. Proteins (50 μg) were separated on 12.5% polyacrylamide gels and transferred to PVDF membranes (Amersham). […] The monoclonal anti-mouse caspase-2 antibody (52 kDa; 11B4, Alexis Biochemicals) was used at a 1:1000 dilution; actin (42 kDa; Sigma; antibody diluted 1:5000) is used as an equal loading control.
# Caspase-2 activity (100 μg protein brain sample) was assessed in 100 μl assay buffer (50 mM HEPES, pH 7.4, 100 mM NaCl, 0.1% CHAPS, 10 mM DTT, 1 mM EDTA, 10% glycerol). The cleavage of 50 μM VDVAD(SEQ ID NO:9)-AMC by recombinant caspase-2 was measured after 2 h at 37° C. on a fluorescence microplate reader by monitoring the fluorescence emission at 510 nm upon excitation at 405 nm.
# Animals were sacrified at 24 hrs. Brain homogenates were subjected to caspase-2 activity assay and western blot analysis. IL: ipsilateral injured hemisphere, CL: contralateral unlesionned hemisphere.
# [6] = test system: global cerebral ischemia (4VO); conditions: icv, 72 h post-ischemia
# Description: Global cerebral ischemia was induced by four-vessel occlusion (4VO) according a Pulsinelli's derived method (Pulsinelli et al., 1982; Pulsinelli and Buchman, 1988) in young-adult rats (males Wistar aged of 10-12 weeks, 320 g+/−10 g; Janvier). The first day, head of anesthetised rats was positionned in stereotaxic ear bars and tilted down at approximatively 30° to the horizontal. After a midline incision at the level of cervical spine, both vertebral arteries were exposed under microscope and then coagulated by electocautery needle through the alar foramina at the level of first cervical vertebra. Both common carotides were then exposed 24 h later and clamped for 20-30 min (rats fell in the coma when electrocautherisation of both vertebral arteries have been well performed). Carotid arteries were then declamped to allow blood flow reperfusion. […] Rats were let in their cage with waer et food ad libitum.
# Rats were sacrificed and brain fixed by trans-cardiac perfusion with paraformaldehyde. Frontal brain slices (25 μm) were strained by Cresyl-Violet or co-stained by Hoechst 33342 and Fluorojade B to assess cell death in the hippocampus and in the cortex. […] Fluoro JadeB (green fluorescence) intake is possible only in cells which have permeable plasma membrane, thus more caracteristic of dying cells. Hoechst 33342 (blue fluorescence) label nuclei all all cells and allows to appreciate nuclear morphology changes during cell death.
# Cells were counted at the level of canula, as well as 650 μm and 780 μm after the cannula (antero-posterior axis) in the left brain hemisphere. Cells are counted in three successives slices at such levels in the hippocampus (CA1, CA3, girus dentus) and cortex. […] Both Fluoro Jade B and Hoechst stained slices were observed under a Leica DMIRB inverted fluorescence microscope equiped with ×40 objective and LEICA IM1000/Qfluorobase software (BP 340-80 excitation filter combined with LP 425 emission filter for Hoechst; BP 480/40 excitation filter combined with BP 515-560 emission filter for Fluoro Jade B).
# [7] = test system: non-ischemic rats; conditions: rat, in vivo
# Description: The selective loss of vulnerable cells and Qco-VDVAD-dfp(SEQ ID NO:1)'s effects (intracerebroventricular (ICV) administrated) have been evaluated at 72 h. Rats were sacrificed and brain fixed by trans-cardiac perfusion with paraformaldehyde. Frontal brain slices (25 μm) were strained by Cresyl-Violet or co-stained by Hoechst 33342 and Fluorojade B to assess cell death in the hippocampus and in the cortex. Cresyl-Violet is a pink-red dye that labels cytoplamic body Nissl (endoplasmic reticulum structures) and nuclei in living cells thus resulting in pale or absence of staining in dying cells. Fluoro JadeB (green fluorescence) intake is possible only in cells which have permeable plasma membrane, thus more caracteristic of dying cells. Hoechst 33342 (blue fluorescence) label nuclei all all cells and allows to appreciate nuclear morphology changes during cell death.
# Cells were counted at the level of canula, as well as 650 μm and 780 μm after the cannula (antero-posterior axis) in the left brain hemisphere. Cells are counted in three successives slices at such levels in the hippocampus (CA1, CA3, girus dentus) and cortex. Cresyl-Violet stained slices were observed under white light (Nikon Eclipse E 800M microscope equipped with ×40 et ×20 objectives and LEICA IM50 software). […]
# [8] = test system: global cerebral ischemia (4VO); conditions: 4VO ischemic treated rats versus untreated rats
# Description: Corporal temperature was measured during churgical procedure at day 1 (from anesthesia to stepl (vertebral electrocauterisation and cannula putting up) and step 2 (coratid isolation) of chirurgical procedure during. Corporal temperature was also measured 0, 10, 20 minutes after the beginning of ischemia, at day 2. Temperature was measured 24, 48, 72 H post-ischemia and before final anesthesia for perfusion at day 5. Behavioural studies (feeding, spontaneous activity and reactivity) were performed and evaluated by scoring.
# Feeding: observation of stomacal contains at day 5
# If refeeding=1; If no refeeding=0
# Vivacity=1; More or less vivacious=0.5; No or poor vivacity=0.
# Reactivity: animal are sensitive and reactive to noise and move to the origin of the noise.
# If curious=1; If relatively curious=0.5; If not very curious=0.
# Chain of caspase-2 (P55215 whole entry): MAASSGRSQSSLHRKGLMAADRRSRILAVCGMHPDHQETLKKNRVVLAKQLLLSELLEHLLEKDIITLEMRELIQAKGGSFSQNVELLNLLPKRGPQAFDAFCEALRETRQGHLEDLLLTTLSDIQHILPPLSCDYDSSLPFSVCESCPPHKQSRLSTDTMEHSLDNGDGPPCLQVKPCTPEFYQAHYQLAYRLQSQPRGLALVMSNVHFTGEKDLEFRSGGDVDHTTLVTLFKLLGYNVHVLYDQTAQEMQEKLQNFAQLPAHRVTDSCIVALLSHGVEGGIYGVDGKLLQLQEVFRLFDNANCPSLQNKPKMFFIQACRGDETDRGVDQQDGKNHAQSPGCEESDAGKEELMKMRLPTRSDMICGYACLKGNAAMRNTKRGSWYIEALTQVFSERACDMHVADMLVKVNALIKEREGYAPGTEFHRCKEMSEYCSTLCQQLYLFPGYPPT
smiles,measurement,setting,value
"COC(=O)C[C@H](NC(=O)[C@H](C)NC(=O)[C@@H](NC(=O)[C@H](CC(=O)OC)NC(=O)[C@@H](NC(=O)c1ccc2ccccc2n1)C(C)C)C(C)C)C(=O)COc1c(F)cccc1F [Qco-VDVAD-dfp, 2-Quinolinylcarbonyl-L-Valinyl-L-Aspartyl (methyl ester)-L-Valinyl-L-Alanyl-L-Aspartyl (methyl ester) 2,6-difluorophenyl ester] (Quinaldoyl-VD(OMe)VA-X1)",caspase-2 activity in serum-deprived cortical neurons,[1]; 24 h serum deprivation,prevents caspase-2 activity
same,cell permeance,[1]; inferred from prevention of caspase-2 activity in cortical neuron cultures,cell-permeant
same,cross reactivity against 32 other related proteases or enzymes,[2],no cross reactivity
same,degradation after freeze/thawing (HPLC),[3],No degradation
same,"infarct volume (%), mean","[4]; 0.1 mg/kg i.p. 1 h after MCAO, 48 hrs, control 22.64±1.6%",9.95±2.8%
same,reduction in infarct volume,"[4]; 0.1 mg/kg i.p. single dose 1 h after MCAO / ischemic onset, 48 hrs, n=19",44%
same,infarct volume of the four animals with intermediate protection,"[4]; 5 mg/kg i.p. before ischemic onset, 4 of 12 animals",16.5±1.32%
same,"infarct volume, median of the eight animals with complete protection or very marked smaller infarct","[4]; 5 mg/kg i.p. before ischemic onset, 8 of 12 animals",0.5%
same,"infarct volume (% damage of ipsilateral hemisphere), mean","[4]; 5 mg/kg i.p. before ischemic onset, 48 hrs, control 22.1±1.4%",5.7±2.3%
same,"infarct volume, median","[4]; 5 mg/kg i.p. before ischemic onset, all 12 animals, control median=21",0.5
same,reduction in infarct volume,"[4]; 5 mg/kg i.p. single dose 5-15 min before ischemic onset, 48 hrs, n=12",74%
same,terminal transferase dUTP nick end labeling (TUNEL),[4]; ipsilateral cortex of treated animals,significantly decreased
same,caspase-2 activity in brain of ischemic rat pups,[5],inhibited caspase-2 activity
same,caspase-2 processing in brain of ischemic rat pups (western blot),[5],inhibited caspase-2 activity as well as caspase-2 processing
same,Cresyl-violet staining intensity in CA1,[6],partially restored
same,abnormal nuclei in CA1 (Hoechst),[6]; versus ischemic rats,less abnormal nuclei
same,cells incorporating Fluorojade B in CA1,[6]; ischemic rats 50-60%,10-20%
same,cell death in hippocampus or cortex of non-ischemic rats,[7],< 10%
same,topical toxicity,[7],not topically tokic
same,"general behaviour scoring (feeding, spontaneous activity, reactivity)",[8],better scoring
